Test: CYP reaction phenotyping in HLM with selective CYP inhibitors
Details: ketoconazole 1 or 10 μM; ticlopidine 20 μM; mitragynine 2 μM

With `CC(=O)N1CCN(c2ccc(OCC3COC(Cn4ccnc4)(c4ccc(Cl)cc4Cl)O3)cc2)CC1` (centres unmarked) [ketoconazole] the “effect on decomposition of mitragynine in HLM” value was “robustly inhibited” and the “effect on formation of 7-OH from mitragynine in HLM” value was “robustly inhibited”.

Source: article PMC6598159 (ACS Central Science, 2019)
